# Test system: subjects with primary autonomic failures (MSA, PD, or PAF) and symptomatic nOH
# Experiment: Phase 3 22-week randomized withdrawal study in symptomatic nOH (Example 7)
# Type: in vivo, human
# Design: OHSA composite score, LS Mean / OHSA composite score, Mean / OHSA composite score, Median / OHSA composite score, LS Mean Difference / OHDAS item 1 (standing for a short time) score, Mean / OHDAS item 1 (standing for a short time) score, Median / OHDAS item 1 (standing for a short time) score, LS Mean / OHDAS item 1 (standing for a short time) score, LS Mean Difference: scale not given here
# Settings: for OHSA composite score, Mean / OHSA composite score, Median / OHSA composite score, LS Mean Difference / OHSA composite score, LS Mean: change at week 22, end of 6-week double-blind period; for OHDAS item 1 (standing for a short time) score, LS Mean / OHDAS item 1 (standing for a short time) score, Mean / OHDAS item 1 (standing for a short time) score, Median / OHDAS item 1 (standing for a short time) score, LS Mean Difference: week 22, end of 6-week double-blind period
# Description: The study consisted of a 16-week open-label (OL) treatment period with ampreloxetine followed by a 6-week double-blind randomized withdrawal period where subjects were administered either ampreloxetine or placebo.
# Eligible subjects were either (i) completers of the study of Example 6 (“Completers Group”), or (ii) symptomatic nOH subjects meeting all applicable study inclusion criteria and none of the applicable exclusion criteria (“De Novo Group”).
# A 4-week screening period applied to the De Novo Group only and the Screening visit was conducted in clinic for all De Novo Group subjects.
# A total of 203 subjects entered this study (170 subjects from Example 6 (85 from the ampreloxetine group and 85 from the placebo group) and 33 de novo subjects). During the OL period, 55 subjects discontinued treatment. At 16 weeks, 64 subjects were randomized to the ampreloxetine group (6 subjects discontinued the study) and 64 subjects were randomized to the placebo group (3 subjects discontinued the study). A total of 119 subjects completed the study. Of the 128 subjects entering the randomized period, 40 subjects had MSA (31%); 68 subjects had PD (53%); and 20 subjects had PAF (16%) (in each category, the subjects were split equally between ampreloxetine and placebo).
# Beginning on Day 2, subjects received a single dose of 10 mg ampreloxetine once daily (QD) and continued thereafter for the 16-week duration of the OL treatment period. Following this 16-week OL treatment period, subjects were randomized to either continue on the active treatment or placebo (“PBO”) for a period of 6 weeks.
# Subjects enrolled into the OL period of the study had visits scheduled for Day 15, Day 29, and every 4 weeks thereafter for assessments as outlined in the Schedule of Study Procedures. […] Those subjects not meeting this continuation criterion were discontinued and underwent an end of study visit. The end of study visit was completed within 2 weeks from the date of the last dose.
# Following the completion of a total of 16 weeks OL treatment with ampreloxetine (V6), subjects were assessed for randomization in a 1:1 manner. Eligible subjects received 6 weeks of double-blind treatment of ampreloxetine or PBO once daily. Only subjects with OHSA #1 score of ≤7 were eligible for randomization for the double-blind treatment period.
# Exploratory assessments included: orthostatic standing test; NMSS; EQ-5D-5L; HADS; and BSFC-s. For subjects with PD, exploratory assessments included: Unified Parkinson's Disease Rating Scale (UPDRS); and Parkinson's Disease Questionaire-8 (PDQ-8). For subjects with MSA, exploratory assessments included: Unified Multiple System Atrophy Rating Scale (UMSARS); and Composite Autonomic Symptom Score-31 (COMPASS-31).
# The secondary endpoints included: • (a) Change from baseline in OHSA #1 at Week 6 post randomization (V9, D155); • (b) Change from baseline in OHSA composite score at Week 6 post randomization (V9, D155); • (c) Change from baseline in OHDAS composite score at Week 6 post randomization (V9, D155); • (d) Change from baseline in PGI-S at Week 6 post randomization (V9, D155); • (e) Change from baseline in percentage of time spent in standing position as measured by a wearable device at Week 6 post randomization (V9, D155); and • (f) Change from baseline in average number of steps taken as measured by a wearable device at Week 6 post randomization (V9, D155).
# [1] = MSA subjects, Pre treatment baseline OHSA1 <7
# [2] = MSA subjects, Pre treatment baseline OHSA1 >2
# [3] = MSA subjects, Pre treatment baseline OHSA1 >=7
# [4] = MSA subjects, Pre treatment baseline OHSA Composite <5.3
# [5] = MSA subjects, Pre treatment baseline OHSA Composite >=5.3
# [6] = MSA subjects, RW baseline OHSA1 <=2
# [7] = MSA subjects, RW baseline OHSA Composite <2.5
# [8] = MSA subjects, RW baseline OHSA Composite >=2.5
# [9] = MSA subjects, UMSARS Part IV <4
# [10] = MSA subjects, UMSARS Part IV <4, vs placebo
# [11] = MSA subjects, UMSARS Part IV >=4
# [12] = MSA subjects, UMSARS Part IV >=4, vs placebo
# [13] = MSA subjects, nOH onset <1.6 years
# [14] = MSA subjects, nOH onset <1.6 years, vs placebo
# [15] = MSA subjects, nOH onset >=1.6 years
# [16] = MSA subjects, nOH onset >=1.6 years, vs placebo
# [17] = MSA subjects, end of 6-week double-blind randomized period, FIG. 3
# [18] = MSA subjects, week 22, 10 mg, N 19
smiles,measurement,setting,value
"Fc1cc(F)c(OCc2ccccc2C2CCNCC2)c(F)c1 [Ampreloxetine, 4-[2-(2,4,6-trifluorophenoxymethyl)phenyl]piperidine]","OHSA composite score, Mean",[1],−0.11
same,"OHSA composite score, Median",[1],−0.1
same,"OHSA composite score, LS Mean Difference","MSA subjects, Pre treatment baseline OHSA1 <7, vs placebo",−1.08
same,"OHSA composite score, LS Mean",[2],−0.77
same,"OHSA composite score, Mean",[2],−0.96
same,"OHSA composite score, Median",[2],−0.6
same,"OHSA composite score, LS Mean Difference","MSA subjects, Pre treatment baseline OHSA1 >2, vs placebo",−1.99
same,"OHSA composite score, LS Mean",[3],0.41
same,"OHSA composite score, Mean",[3],0.00
same,"OHSA composite score, Median",[3],0.5
same,"OHSA composite score, LS Mean Difference","MSA subjects, Pre treatment baseline OHSA1 >=7, vs placebo",−1.31
same,"OHSA composite score, LS Mean",[4],−0.71
same,"OHSA composite score, Mean",[4],−0.56
same,"OHSA composite score, Median",[4],−0.05
same,"OHSA composite score, LS Mean Difference","MSA subjects, Pre treatment baseline OHSA Composite <5.3, vs placebo",−1.96
same,"OHSA composite score, LS Mean",[5],0.76
same,"OHSA composite score, Mean",[5],0.46
same,"OHSA composite score, Median",[5],0.3
same,"OHSA composite score, LS Mean Difference","MSA subjects, Pre treatment baseline OHSA Composite >=5.3, vs placebo",−0.97
same,"OHSA composite score, LS Mean",[6],0.74
same,"OHSA composite score, Mean",[6],0.86
same,"OHSA composite score, Median",[6],0.25
same,"OHSA composite score, LS Mean Difference","MSA subjects, RW baseline OHSA1 <=2, vs placebo",−0.91
same,"OHSA composite score, LS Mean",[7],0.95
same,"OHSA composite score, Mean",[7],0.98
same,"OHSA composite score, Median",[7],0.4
same,"OHSA composite score, LS Mean Difference","MSA subjects, RW baseline OHSA Composite <2.5, vs placebo",−0.90
same,"OHSA composite score, LS Mean",[8],−0.92
same,"OHSA composite score, Mean",[8],−0.90
same,"OHSA composite score, Median",[8],−0.5
same,"OHSA composite score, LS Mean Difference","MSA subjects, RW baseline OHSA Composite >=2.5, vs placebo",−1.96
same,"OHSA composite score, LS Mean",[9],0.01
same,"OHSA composite score, Mean",[9],−0.04
same,"OHSA composite score, Median",[9],0.25
same,"OHSA composite score, LS Mean Difference",[10],−1.70
same,"OHDAS item 1 (standing for a short time) score, LS Mean",[9],−0.3
same,"OHDAS item 1 (standing for a short time) score, Mean",[9],−0.3
same,"OHDAS item 1 (standing for a short time) score, Median",[9],0.0
same,"OHDAS item 1 (standing for a short time) score, LS Mean Difference",[10],−2.8
same,"OHSA composite score, LS Mean",[11],−0.17
same,"OHSA composite score, Mean",[11],−0.15
same,"OHSA composite score, Median",[11],−0.15
same,"OHSA composite score, LS Mean Difference",[12],−1.44
same,"OHDAS item 1 (standing for a short time) score, LS Mean",[11],0.5
same,"OHDAS item 1 (standing for a short time) score, Mean",[11],1.0
same,"OHDAS item 1 (standing for a short time) score, Median",[11],1.0
same,"OHDAS item 1 (standing for a short time) score, LS Mean Difference",[12],1.9
same,"OHSA composite score, LS Mean",[13],0.48
same,"OHSA composite score, Mean",[13],0.43
same,"OHSA composite score, Median",[13],0.50
same,"OHSA composite score, LS Mean Difference",[14],−1.33
same,"OHDAS item 1 (standing for a short time) score, LS Mean",[13],−0.3
same,"OHDAS item 1 (standing for a short time) score, Mean",[13],−0.3
same,"OHDAS item 1 (standing for a short time) score, Median",[13],0.0
same,"OHDAS item 1 (standing for a short time) score, LS Mean Difference",[14],−2.4
same,"OHSA composite score, LS Mean",[15],−0.45
same,"OHSA composite score, Mean",[15],−0.41
same,"OHSA composite score, Median",[15],−0.20
same,"OHSA composite score, LS Mean Difference",[16],−1.56
same,"OHDAS item 1 (standing for a short time) score, LS Mean",[15],−0.3
same,"OHDAS item 1 (standing for a short time) score, Mean",[15],−0.1
same,"OHDAS item 1 (standing for a short time) score, Median",[15],0.0
same,"OHDAS item 1 (standing for a short time) score, LS Mean Difference",[16],−0.8
same,"OHDAS composite score, change","MSA subjects, 6-week double-blind randomized period, placebo +0.97, p=0.196",+0.16
same,"Systolic blood pressure upon standing for 3 minutes, mean change","MSA subjects, 6-week double-blind randomized period, placebo −12.4",+6.1 mmHg
same,"Quality of life, EQ-5D-5L visual analog scale","MSA subjects, FIG. 4, vs placebo",quality of life declines less or improves
same,OHDAS walking long time,[17],favor placebo
same,OHSA and OHDAS composite scores and individual subscores,[17],all favor ampreloxetine
same,"OHSA item 1 score, change","MSA subjects, end of 6-week double-blind randomized withdrawal period, placebo +1.8, p=0.0861",+0.3
same,"Anxiety Total Score, Change from Baseline, LS Mean Difference (SE)","MSA subjects, week 22, 10 mg vs placebo, P-value 0.0343",−1.26 (0.573)
same,"Anxiety Total Score, Change from Baseline, LS Mean (SE)",[18],−1.05 (0.405)
same,"Anxiety Total Score, Change from Baseline, Mean (SD)",[18],−1.05 (1.900)
same,"Anxiety Total Score, Change from Baseline, Median",[18],−1.00
same,OHQ composite scores for subgroups,"subgroups of MSA subjects, week 22, FIG. 6",all favored ampreloxetine

# Reference: patent publication US20230372318A1, “METHODS FOR TREATING A SUBJECT HAVING MULTIPLE SYSTEM ATROPHY” (Theravance Biopharma R&D IP, LLC, priority 2022, published 2023)
